According to article PMC9967275, “Screening the Pathogen Box to Discover and Characterize New Cruzain and TbrCatL Inhibitors” (Pathogens, 2023):
Like-named read-outs stand apart in the source and are kept apart here.

Key:
TbrCatL = target: T1, TbrCatL (Trypanosoma brucei rhodesiense, UniProt Q95PM0); experiment: TbrCatL enzymatic inhibition assay (cleavage of fluorogenic substrate Z-FR-AMC); type: biochemical; details: for TbrCatL 0’ Inhibition / TbrCatL 10’ Inhibition: sheet "Screening results"
T1 construct: Conor Caffrey (University of California San Diego)
How it was run: (§1)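 Recombinant enzymes assayed by Z-Phe-Arg-AMC cleavage at 25 °C, fluorescence 340/440 nm over 5–7 min, with 10 min or no enzyme–compound preincubation.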

cruzain = cruzain (Trypanosoma cruzi, UniProt P25779); experiment: biochemical; details: for Cruzain 0’ Inhibition / Cruzain 10’ Inhibition: sheet "Screening results"
How it was run: as §1

[1] = 0’ (no pre-incubation), sheet Screening results
[2] = 10’ (pre-incubation), sheet Screening results
[3] = 5 µM, PB library solutions, 10 min pre-incubation, vs DMSO control
[4] = 0’ (pre-incubation time), Pathogen Box screening results
[5] = 10’ (pre-incubation time), Pathogen Box screening results

T1 sequence (Q95PM0 entry or part of it): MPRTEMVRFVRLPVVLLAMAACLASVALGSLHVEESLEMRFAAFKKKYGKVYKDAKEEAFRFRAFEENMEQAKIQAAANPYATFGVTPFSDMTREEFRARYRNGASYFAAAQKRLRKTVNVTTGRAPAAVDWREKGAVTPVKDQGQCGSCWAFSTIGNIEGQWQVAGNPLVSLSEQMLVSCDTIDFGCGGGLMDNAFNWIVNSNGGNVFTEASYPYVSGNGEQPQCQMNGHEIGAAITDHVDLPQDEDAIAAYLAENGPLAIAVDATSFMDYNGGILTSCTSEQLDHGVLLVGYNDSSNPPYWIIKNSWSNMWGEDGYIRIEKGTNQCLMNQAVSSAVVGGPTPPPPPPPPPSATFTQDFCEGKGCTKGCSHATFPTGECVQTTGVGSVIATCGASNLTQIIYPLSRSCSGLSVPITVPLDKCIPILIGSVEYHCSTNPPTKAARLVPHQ
Chain of cruzain (P25779 123-337 limits assumed): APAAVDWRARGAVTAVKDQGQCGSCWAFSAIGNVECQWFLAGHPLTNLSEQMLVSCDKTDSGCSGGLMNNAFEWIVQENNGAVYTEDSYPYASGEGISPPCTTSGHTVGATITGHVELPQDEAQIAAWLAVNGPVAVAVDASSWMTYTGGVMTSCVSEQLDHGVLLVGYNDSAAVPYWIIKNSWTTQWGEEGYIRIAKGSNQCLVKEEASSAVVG

SMILES | TbrCatL Inhibition 0’ (TbrCatL; [1]) [%] | TbrCatL Inhibition 10’ (TbrCatL; [2]) [%] | Cruzain Inhibition 0’ (cruzain; [1]) [%] | Cruzain Inhibition 10’ (cruzain; [2]) [%] | TbrCatL 0’ Inhibition (TbrCatL; 0’ (pre-incubation time)) [%] | TbrCatL 10’ Inhibition (TbrCatL; 10’ (pre-incubation time)) [%] | Cruzain 0’ Inhibition (cruzain; 0’ (pre-incubation time)) [%] | Cruzain 10’ Inhibition (cruzain; 10’ (pre-incubation time)) [%] | further results
c1ccc(-c2[nH]c3ccccc3c2C(c2ccccn2)N2CCCC2)cc1 (centres unmarked) [MMV688762] | 3.2 | 1.8 | 3.2 | 1 | – | – | – | – | –
COc1ccc(Nc2ccccc2NC(=O)c2ccc(=O)[nH]c2)cc1 [MMV676554] | 10 | 4.5 | 2.8 | 0.5 | – | – | – | – | –
CCCCc1ccc(C(=O)Nc2nccc3ccccc23)nc1 [MMV687254] | – | – | – | – | -7 | -2.6 | -10 | -5 | –
O=C(Nc1cccc(-c2ccc(NCCCN3CCCC3)nc2)c1)c1ccccc1 [MMV023953] | – | – | – | – | 12 | 7 | 8 | 11 | –
CNc1snc(C)c1C(=O)NCCOc1ccc(OC)cc1 [MMV688554] | -7 | -8 | -8 | -4.6 | – | – | – | – | –
O=C(Nc1ccnc(-c2cccnc2)n1)c1cc(C(F)(F)F)cc(C(F)(F)F)c1 [MMV019838] | -8 | -5 | 2 | 16 | – | – | – | – | –
CC1=NN(c2nc3ccccc3s2)C(=O)C1Cc1cccc2ccccc12 (centres unmarked) [MMV676558] | -23 | -63 | -23 | -18 | – | – | – | – | –
CC(c1cc(Cl)cc(Cl)c1)N(C)c1ncc2c(N)nc(N)nc2n1 (centres unmarked) [MMV689437] | – | – | – | – | -12 | 3.6 | -3 | 9 | –
NC(CC(=O)c1ccc(Cl)cc1Cl)C(Cl)(Cl)Cl (centres unmarked) [MMV676468] | – | – | – | – | -5 | -2 | 2.5 | 0.4 | –
Cc1cc(NC(=O)c2ccc(S(=O)(=O)N(Cc3ccccc3)C(C)C)cc2)no1 [MMV007133] | – | – | – | – | -7 | -11 | -3 | -4.5 | –
O=C(Nc1ccc(C(F)(F)F)c(C(F)(F)F)c1)c1cc(Cl)ccc1O [MMV687807] | – | – | – | – | -4 | -5 | -0.3 | 6 | –
O=C(COc1cccc(F)c1)Nc1nc(-c2ccccn2)cs1 [MMV676409] | -77 | – | -227 | – | – | – | – | – | Increase in the initial velocity of the reaction (%) 5 µM using PB samples TbrCatL (TbrCatL; [3]): 772 ± 382%; Increase in initial velocity of substrate cleavage in comparison to the DMSO control (TbrCatL; TbrCatL 10′ inc, screening at 5 µM): up to 8 fold; Increase in the initial velocity of the reaction (%) 5 µM using PB samples Cruzain (cruzain; [3]): 510 ± 216%; Increase in the initial velocity of the reaction (%) 5 µM using solid samples Cruzain (cruzain; 5 µM, solid samples, 10 min pre-incubation, vs DMSO control): -4 ± 2%; Increase in the initial velocity of the reaction (%) 100 µM using solid samples Cruzain (cruzain; 100 µM, solid samples, 10 min pre-incubation, vs DMSO control): 0 ± 6%; Increase in the enzyme velocity in confirmatory assays (cruzain; solid samples, varying compound concentrations): no increase in the enzyme velocity
c1ccc(C[C@@H]2CN(c3nccc(Oc4ccc(-n5ccnc5)cc4)n3)CCN2)cc1 [MMV687749] | 6.4 | 5.6 | 14 | 13 | – | – | – | – | –
Cc1cccc(NC(=O)c2cc(S(=O)(=O)N(C)c3ccc(F)cc3)ccc2Cl)n1 [MMV676528] | -3 | 1.8 | 3.7 | 6 | – | – | – | – | –
CC(=O)Nc1ccc(-c2noc(CC3CCCN(Cc4cccc(F)c4C)C3)n2)cc1 (centres unmarked) [MMV689061] | 0 | 0.8 | 1.2 | 3.6 | – | – | – | – | –
COc1ccc(N(CCc2cccc(C)n2)C(=O)C2CCCCC2)cc1 [MMV675996] | – | – | – | – | -13 | -10 | -3 | -2.2 | –

SMILES | TbrCatL Inhibition 0’ (TbrCatL; [1]) [%] | TbrCatL Inhibition 10’ (TbrCatL; [2]) [%] | Cruzain Inhibition 0’ (cruzain; [1]) [%] | Cruzain Inhibition 10’ (cruzain; [2]) [%] | TbrCatL 0’ Inhibition (TbrCatL; 0’ (pre-incubation time)) [%] | TbrCatL 10’ Inhibition (TbrCatL; 10’ (pre-incubation time)) [%] | Cruzain 0’ Inhibition (cruzain; 0’ (pre-incubation time)) [%] | Cruzain 10’ Inhibition (cruzain; 10’ (pre-incubation time)) [%] | further results
CCc1ccc([C@@H]2C[C@H](C(F)(F)F)n3ncc(C(=O)NCc4ccc(OC)cc4)c3N2)cc1 [MMV687180] | – | – | – | – | -4.3 | -11 | -9 | -7 | –
Cc1ccc2[nH]c3c(NCCN(C)C)ncnc3c2c1 [MMV006372] | 10 | 14 | 27 | 21 | – | – | – | – | –
CC(C)(C)n1nc(Cc2cccc3ccccc23)c2c(N)ncnc21 [MMV676599] | – | – | – | – | 4.6 | -5 | 9 | 11 | –
CCN(CC)C(=O)N1CCN(C)CC1 [MMV002816] | – | – | – | – | -0.5 | 0.1 | 2.5 | 1.9 | –
c1cc(C2=NCCN2)cc(-c2cc(-c3ccc(C4=NCCN4)cc3)no2)c1 [MMV688361] | – | – | – | – | 1.9 | -3.5 | 4.5 | 7.4 | –
Cc1noc(C)c1C(=O)N1CCCC(c2[nH]c3c(C)cccc3c2-c2ccncc2)C1 (centres unmarked) [MMV020623] | -5.6 | 4 | 0.3 | 5 | – | – | – | – | –
Nc1nccc2ccc(-c3ccc4nccn4c3)cc12 [MMV023233] | – | – | – | – | 0.7 | 7 | 11 | 8 | –
COc1ccc(C2=NN(C3CCCCCC3)C(=O)[C@H]3CC=CC[C@@H]23)cc1OCCCCOc1ccc(-c2nn[nH]n2)cc1 [MMV690027] | 6.4 | -1.8 | – | – | – | – | – | – | inhibition at 5 µM (TbrCatL; read-out: Inhibition at 5 µM (Mean ± SEM %) TbrCatL 0′): 6 ± 2%; inhibition at 5 µM (TbrCatL; read-out: Inhibition at 5 µM (Mean ± SEM %) TbrCatL 10′ inc): 0%; inhibition at 5 µM (cruzain; read-out: Inhibition at 5 µM (Mean ± SEM %) Cruzain 0′, 5 µM, no pre-incubation, initial screening): 50 ± 5%; inhibition at 5 µM (cruzain; read-out: Inhibition at 5 µM (Mean ± SEM %) Cruzain 10′ inc, 5 µM, 10′ pre-incubation, initial screening): 33 ± 2%; inhibition at 5 µM (cruzain; read-out: Inhibition of cruzain or TbrCatL (either enzyme) in the initial screening, 5 µM, either cruzain or TbrCatL, with or without pre-incubation): ≥ 40%
CCCCc1ccc(NC(=O)Nc2ccc(O[C@H]3CCCC[C@@H]3N(C)c3ccccc3)c(F)c2)cc1 [MMV676063] | – | – | – | – | -17 | -15 | -13 | -3.3 | –
CC(Oc1cccc(Cl)c1)C(=O)Nc1ccc2oc(-c3ccncc3)nc2c1 (centres unmarked) [MMV688472] | 13 | 14 | 17 | 14 | – | – | – | – | –
Nc1nc2cc(-c3cncc(Oc4ccc(F)cc4)c3)ccc2[nH]1 [MMV687248] | – | – | – | – | -0.7 | 17 | 17 | 19 | –
c1coc(CNc2nc(N3CCCCC3)nc3ccccc23)c1 [MMV676401] | 6.5 | 15 | 4.6 | 9 | – | – | – | – | –
CNC(=O)c1cc(S(=O)(=O)N2CCN(c3ccccn3)CC2)cs1 [MMV020136] | -6.4 | -5.6 | 5 | 2 | – | – | – | – | –
CCn1ncc2c(NC3CCOCC3)c(CNC(=O)c3ccnn3C)c(C)nc21 [MMV026356] | – | – | – | – | -6 | -7 | -0.3 | 1.1 | –
C[C@H](C(N)=O)N1CCCC[C@@H]1c1ccc(OCc2cccc(F)c2)cc1 [MMV676270] | – | – | – | – | – | – | – | – | TbrCatL Inhibition 0’ (TbrCatL; [4]): 3.2%; TbrCatL Inhibition 10’ (TbrCatL; [5]): -0.6%; Cruzain Inhibition 0’ (cruzain; [4]): 4.6%; Cruzain Inhibition 10’ (cruzain; [5]): 9%
